Data taken from article PMC8809408 (Frontiers in Pharmacology, 2022).
Counter-ions that a name gives are not always drawn. Like-named read-outs stand apart in the source and are kept apart here.

Legend:
[1] = test system: pseudotyped lentiviruses harboring S-protein of SARS-CoV-2; assay: microbe, parasite or virus in culture; format: cell-based
[2] = test system: pseudotyped viruses carrying E484K mutation in S protein; format: cell-based, SARS-CoV-2
[3] = test system: pseudotyped viruses, triple mutant (N501Y/K417N/E484K) S protein; format: cell-based, SARS-CoV-2
[4] = test system: pseudotyped viruses carrying N501Y mutation in S protein; format: cell-based, SARS-CoV-2
[5] = test system: pseudotyped viruses carrying K417N mutation in S protein; format: cell-based, SARS-CoV-2
[6] = Severe acute respiratory syndrome coronavirus 2, 24 h

| Compound | luciferase reporter activity (viral infection) [1] | effectiveness against SARS-CoV-2 spike pseudotyped viruses compared with VSV-G pseudotyped viruses (luciferase activity) ([1]; 24 h) | IC50 [1, 6] [µM] | further results |
| --- | --- | --- | --- | --- |
| N[C@@]1(c2ccccc2Cl)CCC[C@@H](O)C1=O [2R,6R-HNK, 2R, 6R-Hydroxynorketamine] | neither ketamine nor the metabolites were effective | – | – | – |
| N[C@]1(c2ccccc2Cl)CCC[C@H](O)C1=O [2S,6S-HNK, 2S, 6S-Hydroxynorketamine] | neither ketamine nor the metabolites were effective | – | – | – |
| CN(C)C(=O)COC(=O)Cc1ccc(OC(=O)c2ccc(NC(=N)N)cc2)cc1 [Camostat mesylate] | significantly reduced | – | – | – |
| NC(=O)N1c2ccccc2C=Cc2ccccc21 [Carbamazepine] | failed to change the viral infection | – | – | – |
| CN(C)CCCN1c2ccccc2Sc2ccc(Cl)cc21 [Chlorpromazine] | Decline of luciferase reporter activity | more effective | 0.973 | IC50 [1]: 0.972 µM |
| CN(C)CCCC1(c2ccc(F)cc2)OCc2cc(C#N)ccc21 (centres unmarked) [Citalopram] | significantly reduced luciferase reporter activity | more effective | 27.5 | selectivity index (SI) [1]: 9.97 |
| CN(C)CCCN1c2ccccc2CCc2ccc(Cl)cc21 [Clomipramine] | significantly reduced luciferase reporter activity | – | – | effectiveness against SARS-CoV-2 spike pseudotyped viruses compared with VSV-G pseudotyped viruses (luciferase activity) [1]: more effective |
| CNCCCN1c2ccccc2CCc2ccccc21 [Desipramine] | significantly reduced luciferase reporter activity | more effective | 8.1 | – |
| CNCCC(Oc1ccc(C(F)(F)F)cc1)c1ccccc1 (centres unmarked) [Fluoxetine] | significantly reduced luciferase reporter activity | – | – | luciferase reporter activity, E484K pseudovirus [2]: significantly reduced the luciferase reporter activity; luciferase reporter activity, triple mutant (N501Y/K417N/E484K) pseudovirus [3]: significantly reduced the luciferase reporter activity; effectiveness against SARS-CoV-2 spike pseudotyped viruses compared with VSV-G pseudotyped viruses (luciferase activity) [1]: more effective; luciferase reporter activity, WT spike pseudovirus [1]: significantly reduced the luciferase reporter activity; luciferase reporter activity, N501Y pseudovirus [4]: significantly reduced the luciferase reporter activity; luciferase reporter activity, K417N pseudovirus [5]: significantly reduced the luciferase reporter activity |
| OCCN1CCN(CCC=C2c3ccccc3Sc3ccc(C(F)(F)F)cc32)CC1 [Flupenthixol] | Decline of luciferase reporter activity | more effective | 1.07 | selectivity index (SI) [1]: 18.11 |
| CN(C)CCCN1c2ccccc2CCc2ccccc21 [Imipramine] | significantly reduced luciferase reporter activity | – | 3.01 | IC50 [1]: 3 µM; selectivity index (SI) [1]: 22.83 |
| CNC1(c2ccccc2Cl)CCCCC1=O (centres unmarked) [Ketamine] | neither ketamine nor the metabolites were effective | – | – | – |
| Fc1ccc([C@@H]2CCNC[C@H]2COc2ccc3c(c2)OCO3)cc1 [Paroxetine] | significantly reduced luciferase reporter activity | more effective | 12.6 | selectivity index (SI) [1]: 1.76 |
| NNCCc1ccccc1 [Phenelzine] | failed to prevent the viral entry | – | – | – |
| O=c1[nH]c2ccccc2n1C1CCN(CCCC(c2ccc(F)cc2)c2ccc(F)cc2)CC1 [Pimozide] | Decline of luciferase reporter activity | more effective | 4.54 | – |
| CCOc1ccccc1OC(c1ccccc1)C1CNCCO1 (centres unmarked) [Reboxetine] | significantly reduced luciferase reporter activity | more effective | 17.7 | – |
| COc1ccc(C2CNC(=O)C2)cc1OC1CCCC1 (centres unmarked) [Rolipram] | failed to prevent the viral entry | – | – | – |
| COc1ccc(C(CN(C)C)C2(O)CCCCC2)cc1 (centres unmarked) [Venlafaxine] | significantly reduced luciferase reporter activity | – | 36.4 | – |
